Assay results reported in patent publication US5955421A, “Peptides containing D-2-alkyl-Tryptophan” (priority 1990, dated 1999).
Where two headings read alike, the source gives them in different places. Square brackets hold non-standard residues; d marks the D form. Peptide text beside a SMILES is read from it. dTrp(2-Me) = Cc1[nH]c2ccccc2c1C[C@@H](N)C(=O)O; Trp(2-Me) = Cc1[nH]c2ccccc2c1C[C@H](N)C(=O)O; GABA = NCCCC(=O)O

How the values were obtained:
[1] = system: serum growth hormone and cortisol; assay: Oral capsule in healthy subjects, serum growth hormone and cortisol; assay type: in vivo, human; conditions: 20 mg capsule, 5 healthy subjects
Method: A capsule containing 20 mg of the peptide of Example 18 was orally administered to 5 healthy subjects (3 men and 2 women, ages 30 to 66) and serum growth hormone and cortisol levels were measured at various times after administration.

Growth Hormone release = assay: GH release in 10-day old rats, s.c. 160 μg/kg; assay type: in vivo; conditions: 160 μg/kg s.c.
Method: The peptides of Examples 4 and 5 were tested as Growth Hormone releasers in rats. GH released in a series of seven 10-day old rats, injected subcutaneously with a standard dose of 160 μg/kg and sacrificed 15 minutes after the injection.

[2] = system: pituitary cell monolayers; assay: GH secretion of pituitary cell monolayers incubated with peptides; assay type: cell-based, rats; conditions: 2 hours incubation
Method: (§1) Male Sprague Dawley rats (Charles River, Calco, Italy) of 2-3 months of age were used. Rats were housed at 22 +2° C., with lighting cycle of 14 h light: 10 h dark (lights on from 06.00 to 20.00 h), at least 10 days before starting the experiments. A standard dry diet and water were available ad libitum.
Pituitary tissue used for cell dissociation included only the anterior lobe. Briefly, pituitary glands were collected in sterile F-10 medium and after cutting into small fragments incubated twice (30 minutes each) at 37° C. in F-10 medium containing 6% fetal calf serum and collagenase (2.5 mg/ml) (Boehringer, Mannheim GmbH, Germany). Fragments were then washed in Dulbecco's PBS, Ca^2 + and Mg^2 + free medium and mechanically dissociated. Single cell suspension was planted onto 24-well (2×10^5 cells/well) culture plates. The cells were incubated in F-10 medium supplemented with 10% horse serum, 4% fetal calf serum and gentamycin (25 μg/ml), in a humidified atmosphere of 5% CO2 and 95% air at 37° C.
After 3 days, the medium was removed and the cells washed twice with serum free F-10, then incubated with 1 ml of F-10 containing 0.1% BSA only, or with added various concentrations of synthetic peptides.
After incubation for 2 h at 37° C., media were collected and stored frozen at -20° C. until assayed for measurement of GH content.
(§2) Medium and plasma GH was measured by radioimmunoassay using materials supplied by the NIADDK Bethesda, Md. Values were expressed in term of NIASSK-rat-GH-RP-2 standard (potency 2 IU/ml), as ng/ml of medium or plasma.
(§3) The minimum detectable value of rat was 1.0 ng/ml; intra-assay variability was 6%. To avoid inter-assay variation, samples from each experiment were assayed simultaneously.

GH release [3] = assay: Plasma GH after s.c. administration in male rats anesthetized with ketamine and xilazine; assay type: in vivo
Method: as §1
Between 09.00-10.00 h rats were anesthetized with ketamine (58 mg/kg, Inoketam, VIRBAC, Milano) and xilazine (12 mg/kg, Rompun, Bayer, Milano). Thirty minutes later, a blood sample ([…]) was withdrawn from the exposed jugular vein, peptides were injected intravenously or subcutaneously, and further blood samples were collected 10, 20 and 30 minutes later.
as §2, §3

rat = assay: Acute cardiovascular toxicity in the rat, single i.v. dose, mortality; assay type: in vivo; conditions: for Dead rats/Total No of rats per group: observed up to 4 hours
Method: These two peptides were also tested for acute cardiovascular toxicity in the rat.
Dosages were calculated on the basis of the declared peptide content in each product, as specified below:
A single dose of HEXARELIN or GHRP-6 was administered to rats in different calendar dates in such a way that each group/dose should be treated in two subsequent days.
For each compound, appropriate amounts of solutions in 0.9% NaCl for injection were prepared just before treatment at the suitable concentrations. The solutions were sterilized by filtration (Millipore filter, pore size 0.22 μm). Owing to the type of the study (acute study) in which formulates were administered just after preparation, stability checks were not performed. Concentration checks were also not performed. The volume of solution injected was maintained constant at 1 ml/Kg.
The intravenous injections were done as a single dose in one vein of the tail with an appropriately gauged sterile, disposable, plastic syringe. The injection rate was about 0.1 ml/sec.
Periodical observations were made up to 4 hours after treatment. Abnormality and mortality were recorded. Body weight was recorded once during pre-trial and on the administration day to calculate the volumes to be injected.

growth hormone secretion = assay: Growth hormone secretion in young healthy male volunteers; assay type: in vivo, human; conditions: young (20-30 years old) healthy male volunteers, various dosages, FIGS. 18-20
Method: The effects of HEXARELIN on growth hormone secretion in young (20-30 years old) healthy male volunteers were measured after the administration of various dosages.

Human heart tissue = assay: Inhibition of 125I-Tyr-Ala-HEXARELIN binding to human heart tissue membranes
Method: (§4) Tissue membranes (0.1 mg protein) obtained from the heart and hypothalamus of two different adult subjects were incubated in triplicate with a subsaturating concentration (34 pM, about 48,000 cpm, for heart tissue and 42 pM, about 60,000 cpm for hypothalamus tissue) of ^125 I-Tyr-Ala-HEXARELIN for 40 min at 0° C. in the absence and in the presence of increasing concentrations of the indicated unlabelled peptides. The value in parentheses represents the % of inhibition of ^125 I-Tyr-Ala-HEXARELIN specifically bound.
(§5) The specific binding of ^125 I-Tyr-Ala-HEXARELIN/0.1 mg membrane protein is expressed as a percent of total radioactivity added.

[4] = system: Human hypothalamus tissue; assay: Inhibition of 125I-Tyr-Ala-HEXARELIN binding to human hypothalamus tissue membranes
Method: as §4, §5

GH release [5] = assay: Released GH in ten day-rats, s.c. (Table 9); assay type: in vivo; conditions: 300 μg/kg s.c., 15 minutes, GH control 10 to 31 ng/ml depending on experiment
Method: In vivo activity of these compounds was determined in ten day-rats, which were subcutaneously injected (s.c.) with a dose of 300 μg/kg or with different doses in dose-response studies, according to the procedure as described in Deghenghi et. al, Life Sciences 54, 1321 (1994). The released GH was measured 15 minutes following compound administration.

[6] = Hydrophobicity comparison (FIG. 12); assay type: physicochemical
Text: FIG. 12 is a graphical comparison of the hydrophobicity of GHRP-6 and HEXARELIN;

[7] = mean of two subjects, read-out: mean IC50 value
[8] = subject 1, read-out: IC50 value
[9] = subject 2, read-out: IC50 value

## Cc1[nH]c2ccccc2c1C[C@H](NC(=O)[C@@H](Cc1c(C)[nH]c2ccccc12)NC(=O)[C@@H](Cc1c(C)[nH]c2ccccc12)NC(=O)CCCN)C(=O)N[C@@H](CCCCN)C(N)=O [Example 18, GAB-D-2-Mrp-D-2-Mrp-2-Mrp-Lys-NH2] (H-[GABA][dTrp(2-Me)][dTrp(2-Me)][Trp(2-Me)]K-NH2)
[1]
  cortisol levels: without cortisol stimulation

## Cc1[nH]c2ccccc2c1C[C@@H](NC(=O)[C@@H](N)Cc1cnc[nH]1)C(=O)N[C@@H](C)C(=O)N[C@@H](Cc1c[nH]c2ccccc12)C(=O)N[C@H](Cc1ccccc1)C(=O)N[C@@H](CCCCN)C(N)=O [Example 4, His-D-2-methyl-Trp-Ala-Trp-D-Phe-Lys-NH2] (H-H[dTrp(2-Me)]AW[dF]K-NH2)
Growth Hormone release
  activity as Growth Hormone releaser: very active
[2]; 10^-6 M
  GH-releasing activity: 558.0 ± 19.1 ng/well
[2]; 10^-7 M
  GH-releasing activity: 589.1 ± 17.9 ng/well
[2]; 10^-8 M
  GH-releasing activity: 557.8 ± 15.9 ng/well
GH release [3]; s.c. 600 μg/kg, 30 min
  plasma GH: 115.3 ± 19.1 ng/mL
GH release [3]; s.c. 150, 300 and 600 μg/kg, 10, 20 and 30 minutes
  GH-releasing effectiveness compared: more effective than GHRP-6 at all the considered times
rat; 5.0 mg/kg i.v. single dose
  Dead rats/Total No of rats per group: 0/6
rat; 7.5 mg/kg i.v. single dose
  Dead rats/Total No of rats per group: 1/6
rat; 10 mg/kg i.v. single dose
  Dead rats/Total No of rats per group: 2/6
rat; i.v. single dose, rat
  toxicity compared: less toxic than GHRP-6
Growth hormone secretion
  effect on growth hormone secretion: effective in vivo
Human heart tissue; 0.1 nM peptide, subject 1
  inhibition of 125I-Tyr-Ala-HEXARELIN specifically bound: 4%
  specific binding of 125I-Tyr-Ala-HEXARELIN: 20.1% of total radioactivity
Human heart tissue; 0.1 nM peptide, subject 2
  inhibition of 125I-Tyr-Ala-HEXARELIN specifically bound: 5%
  specific binding of 125I-Tyr-Ala-HEXARELIN: 22.8% of total radioactivity
Human heart tissue; 1 nM peptide, subject 1
  inhibition of 125I-Tyr-Ala-HEXARELIN specifically bound: 20%
  specific binding of 125I-Tyr-Ala-HEXARELIN: 16.9% of total radioactivity
Human heart tissue; 1 nM peptide, subject 2
  inhibition of 125I-Tyr-Ala-HEXARELIN specifically bound: 28%
  specific binding of 125I-Tyr-Ala-HEXARELIN: 17.3% of total radioactivity
Human heart tissue; 10 nM peptide, subject 1
  inhibition of 125I-Tyr-Ala-HEXARELIN specifically bound: 51%
  specific binding of 125I-Tyr-Ala-HEXARELIN: 10.4% of total radioactivity
Human heart tissue; 10 nM peptide, subject 2
  inhibition of 125I-Tyr-Ala-HEXARELIN specifically bound: 56%
  specific binding of 125I-Tyr-Ala-HEXARELIN: 10.5% of total radioactivity
Human heart tissue; 100 nM peptide, subject 1
  inhibition of 125I-Tyr-Ala-HEXARELIN specifically bound: 92%
  specific binding of 125I-Tyr-Ala-HEXARELIN: 1.7% of total radioactivity
Human heart tissue; 100 nM peptide, subject 2
  inhibition of 125I-Tyr-Ala-HEXARELIN specifically bound: 90%
  specific binding of 125I-Tyr-Ala-HEXARELIN: 2.4% of total radioactivity
Human heart tissue; 1000 nM peptide, subject 1
  inhibition of 125I-Tyr-Ala-HEXARELIN specifically bound: 100%
  specific binding of 125I-Tyr-Ala-HEXARELIN: 0% of total radioactivity
Human heart tissue; 1000 nM peptide, subject 2
  inhibition of 125I-Tyr-Ala-HEXARELIN specifically bound: 100%
  specific binding of 125I-Tyr-Ala-HEXARELIN: 0% of total radioactivity
Human heart tissue; [7]
  IC50: 9.5 nM
Human heart tissue; [8]
  IC50: 10.6 nM
Human heart tissue; [9]
  IC50: 8.3 nM
[4]; 0.1 nM peptide, subject 1
  inhibition of 125I-Tyr-Ala-HEXARELIN specifically bound: 3%
  specific binding of 125I-Tyr-Ala-HEXARELIN: 10.7% of total radioactivity
[4]; 0.1 nM peptide, subject 2
  inhibition of 125I-Tyr-Ala-HEXARELIN specifically bound: 4%
  specific binding of 125I-Tyr-Ala-HEXARELIN: 9.1% of total radioactivity
[4]; 1 nM peptide, subject 1
  inhibition of 125I-Tyr-Ala-HEXARELIN specifically bound: 16%
  specific binding of 125I-Tyr-Ala-HEXARELIN: 9.6% of total radioactivity
[4]; 1 nM peptide, subject 2
  inhibition of 125I-Tyr-Ala-HEXARELIN specifically bound: 19%
  specific binding of 125I-Tyr-Ala-HEXARELIN: 7.7% of total radioactivity
[4]; 10 nM peptide, subject 1
  inhibition of 125I-Tyr-Ala-HEXARELIN specifically bound: 51%
  specific binding of 125I-Tyr-Ala-HEXARELIN: 5.2% of total radioactivity
[4]; 10 nM peptide, subject 2
  inhibition of 125I-Tyr-Ala-HEXARELIN specifically bound: 67%
  specific binding of 125I-Tyr-Ala-HEXARELIN: 3.1% of total radioactivity
[4]; 100 nM peptide, subject 1
  inhibition of 125I-Tyr-Ala-HEXARELIN specifically bound: 89%
  specific binding of 125I-Tyr-Ala-HEXARELIN: 1.2% of total radioactivity
[4]; 100 nM peptide, subject 2
  inhibition of 125I-Tyr-Ala-HEXARELIN specifically bound: 93%
  specific binding of 125I-Tyr-Ala-HEXARELIN: 0.7% of total radioactivity
[4]; 1000 nM peptide, subject 1
  inhibition of 125I-Tyr-Ala-HEXARELIN specifically bound: 100%
  specific binding of 125I-Tyr-Ala-HEXARELIN: 0% of total radioactivity
[4]; 1000 nM peptide, subject 2
  inhibition of 125I-Tyr-Ala-HEXARELIN specifically bound: 100%
  specific binding of 125I-Tyr-Ala-HEXARELIN: 0% of total radioactivity
[4]; [7]
  IC50: 7 nM
[4]; [8]
  IC50: 8.9 nM
[4]; [9]
  IC50: 5 nM
GH release [5]
  GH released: 104.2 ± 13.1 ng/mL
[6]
  hydrophobicity: greater hydrophobicity than GHRP-6
